From paper PMC12195707, “Evaluation of Antitumoral Activity in a 3D Cell Model of a Src Inhibitor Prodrug for Glioblastoma Treatment” (Pharmaceutics, 2025)
“And” between values parts separate entries of the source, which are not always exact repeats. Equal values may be shown once.

Experiments:
[1] = test system: U251 glioblastoma cell line; test: 2D cell viability assay (PrestoBlue), U251; assay type: cell-based; conditions: Homo sapiens, U-251, 72 h, U251 2D culture
Experimental: (§1) The human glioblastoma cell line U87 MG (U87) was originally isolated from a patient with a malignant glioma (ECACC). The human glioblastoma cell line U251 MG (U251) was derived from a patient with a malignant glioblastoma (ECACC). DMEM high-glucose growth medium (Euroclone, Milan, Italy), supplemented with 10% FBS (Euroclone), 200 mM L-glutamine (Euroclone), 100 IU/mL penicillin, and 100 µg/mL streptomycin (Euroclone) comprised the culture medium used for cell propagation at a controlled temperature and atmosphere, at 37 °C, […], and 5% CO2. Cell lines underwent regular testing for mycoplasma using the PCR method and identity verification was performed using DNA profiling.
(§2) For the treatment of 2D cultures, U87 and U251 cell lines were initially seeded at a density of 2.5 × 10^4 cells/mL in a 24 multiwell with a complete DMEM high-glucose growth medium. The viability test was started 24 h after cell plating and performed for 72 h. According to the experimental plan, the tests were performed in the presence of a complete DMEM high-glucose growth medium or, to avoid the serum-dependent degradation of prodrug, in an FBS-free DMEM high-glucose growth medium that was supplemented with 200 mM L-glutamine, 100 IU/mL penicillin, and 100 µg/mL streptomycin. Cell viability in 2D and 3D models was assessed using the cell-permeable resazurin-based solution PrestoBlue (Thermo Fisher, Waltham, MA, USA). After incubating the cells in a 1:10 ratio with the colorimetric reagent for two hours in the dark, the spectrophotometer readings at 570 and 600 nm were utilized as a relative indicator for cell viability.
(§3) Data were imported into Excel or GraphPad Prism software (version 6.01) and elaborated as the mean ± standard deviation (SD) of at least three independent experiments. The calculation of IC50 values with 95% confidence intervals was performed in GraphPad Prism software using a parameter nonlinear fit of the log-dose vs. response elaboration of data. The p value of the log-dose vs. response was calculated with a two-tailed Mann–Whitney test for unpaired data. The statistical significance between two series of measures, including stability and PAMPA (both GI and BBB) experiments, was calculated with the parametric Student t test, considering a significant p value lower than 0.05.

in vitro = conditions: PAMPA, pH 7.4
Experimental: After being first dissolved in DMSO, the compounds were diluted 1:1 v/v using phosphate buffer (PBS 10 mM, pH 7.4). […] The gastrointestinal (GI) and blood–brain barrier (BBB) phospholipidic bilayers were mimicked by covering each well of the filter plate with either a 10%w/v CHCl3/dodecane brain polar lipid solution or a 1%w/v L-α-phosphatidylcholine solution (PC) in dodecane. After placing a DMSO/PBS 1:1v/v combination solution in the acceptor plate, the sandwich was gently shaken and incubated at room temperature for four hours. Samples were collected from the upper and bottom plates at the end time point, and the LC-UV/MS method was used for analysis. As previously reported, the apparent permeability (Papp cm/s × 10^−6) was quantified.

[2] = Stability/release in cell culture medium DMEM (10% FBS); assay type: in vitro ADME; conditions: 37 °C; for half-life: bovine, DMEM plus 10% FBS (cell culture medium), read-out: Half-life t1/2 (converted)
[3] = test system: U87 glioblastoma cell line; test: 2D cell viability assay (PrestoBlue), U87; assay type: cell-based; conditions: Homo sapiens, 72 h, U87 2D culture
Experimental: as §1, §2, §3

SMILES | IC50 ([1]; 10% FBS-DMEM) [nM] | IC50 ([1]; FBS-free DMEM (w/o)) [nM] | Papp at 4 h (in vitro) [×10⁻⁶ cm/s] | Stability (% unmodified compound) ([2]; time 0 h) [%] | Stability (% unmodified compound) ([2]; time 0.083 h) [%] | Stability (% unmodified compound) ([2]; time 0.25 h) [%] | Stability (% unmodified compound) ([2]; time 0.5 h) [%] | Stability (% unmodified compound) ([2]; time 1 h) | Stability (% unmodified compound) ([2]; time 2 h) [%] | Stability (% unmodified compound) ([2]; time 4 h) [%] | Stability (% unmodified compound) ([2]; time 6 h) [%] | Stability (% unmodified compound) ([2]; time 24 h) | half-life [2] [h] | IC50 ([3]; 10% FBS-DMEM) [nM] | IC50 ([3]; FBS-free DMEM (w/o)) [nM]
ClC(Cn1ncc2c(Nc3cccc(Br)c3)nc(SCCN3CCOCC3)nc21)c1ccccc1 (centres unmarked) [SI306, N-(3-bromophenyl)-1-(2-chloro-2-phenylethyl)-6-((2-morpholinoethyl)thio)-1H-pyrazolo[3,4-d]pyrimidin-4-amine] | 2620 | 230 | 8.44 ± 1.03 | 100.11 ± 0.91 | 101.97 ± 2.32 | 103.96 ± 1.68 | 99.17 ± 1.10 | 98.52 ± 3.69% | 98.64 ± 1.79 | 93.56 ± 1.79 | 92.30 ± 0.84 | 87.39% and 87.39 ± 0.41 % | > 100 | 3070 | 270
O=C(OCCOCCO)N(c1cccc(Br)c1)c1nc(SCCN2CCOCC2)nc2c1cnn2CC(Cl)c1ccccc1 (centres unmarked) [SI306-PD2, 2-(2-Hydroxyethoxy)ethyl (3-Bromophenyl)(1-(2-chloro-2-phenylethyl)-6-((2-morpholinoethyl)thio)-1H-pyrazolo[3,4-d]pyrimidin-4-yl)carbamate] | 1290 | 90 | 19.5 ± 0.46 | 100.02 ± 0.80 | 100.22 ± 0.10 | 103.59 ± 2.97 | 98.01 ± 3.40 | 91.48% and 91.48 ± 0.86% | 85.45 ± 3.20 | 81.41 ± 3.94 |  | 40.07% and 40.07 ± 1.70% | 18.1 | 1620 | 290
